Assay results reported in patent US8026237B2, “Pyrrole derivatives as pharmaceutical agents” (Exelixis, Inc., priority 2004, dated 2011).
In brackets after ≈: the same amount, converted by molar mass.

Legend:
[1] = molecular target: T1, human MR (GAL4-MR chimera, amino acids 671 to 984) (Homo sapiens, UniProt P08235); experiment: GAL4-MR cell based assay (antagonist format)
T1 construct: expressed in transfected cells; host or cells: CV-1 (African Green Monkey Kidney Cells)
T1 sequence (P08235 671-984): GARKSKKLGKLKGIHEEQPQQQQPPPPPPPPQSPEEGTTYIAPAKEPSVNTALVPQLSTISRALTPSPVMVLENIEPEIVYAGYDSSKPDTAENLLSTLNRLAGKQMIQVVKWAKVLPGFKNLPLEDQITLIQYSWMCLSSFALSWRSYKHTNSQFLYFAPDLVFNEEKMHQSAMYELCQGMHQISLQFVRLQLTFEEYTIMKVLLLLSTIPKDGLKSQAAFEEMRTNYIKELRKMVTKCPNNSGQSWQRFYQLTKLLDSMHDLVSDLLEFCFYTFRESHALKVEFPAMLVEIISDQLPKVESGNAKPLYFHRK
Experimental: Compound activity was determined in a cell-based assay using a GAL4-MR chimera to identify compounds with the ability to modulate MR activity.
The pCMX-GAL4-MR expression plasmid was constructed by cloning nucleotides encoding amino acids 671 to 984 of human MR (see GenBank sequence AAA59571) into the vector pCMX-GAL4 (Perlmann et al., 1993,Genes & Development 7:1411-1422) comprising nucleotides encoding for amino acids 1-147 of the GAL4 DNA binding domain.
The TK-MH100x4-Luc (GAL4UAS-TK-Luciferase) reporter construct was constructed by insertion of four copies of the Gal4 UAS (Kang et al. 1993, J. Biol. Chem. 268:9629-9635) into the Hind III site of TK-Luc. The parental plasmid, TK-Luc, was prepared by insertion of the Herpes simplex virus thymidine kinase gene promoter (−105 to +51) obtained from the plasmid pBLCAT2 by digestion with HindIII and XhoI (described in Luckow et al., 1987, Nuc. Acid. Res. 15:5490) into the plasmid MMTV-LUC described by Hollenberg and Evans, 1988, Cell 55:899-906) after removal of MMTV-LTR promoter sequence from MMTV-LUC via digestion with HindIII and XhoI. Correct cloning was confirmed by restriction digestion and/or sequencing.
Assays were performed using CV-1 (African Green Monkey Kidney Cells) (ATCC) cells grown in T175 flasks at a density of 3×10^6 cells/flask in DMEM with 5% FBS. Cells were transfected one day after plating at 70-80 percent confluency with a DNA mixture containing (per T175 flask) 9 μg pCMX-GAL4-MR, 9 μg TK-MH100x4-Luc, and 2 μg pCMX β-Gal using the transfection reagent FuGENE6 (Roche Molecular Biochemicals, Indianapolis, Ind.) following recommended protocols and instructions provided by the manufacturer, and incubated with transfection reagents for 5 hours at 37° C.
Transfected cells were trypsinized, resuspended in media, and 45 μL was added to assay plates at a density of approximately 5,000 cells/well using a MultiDrop dispenser (MTX Lab Systems, Inc., VA). The assay plates containing both compounds and screening cells were incubated for approximately 20 hours at 37° C. and 5% CO2 in a tissue culture incubator.
After incubation of the transfected cells with compounds, Lysis buffer (1% Triton X-100, 10% Glycerol, 5 mM DTT, 1 mM EGTA, 25 mM Tricine, pH 7.8) and Luciferin assay buffer (0.73 mM ATP, 22.3 mM Tricine, 0.11 mM EDTA, 33.3 mM DTT, 0.2M MgSO4, 11 mM Luciferin, 6.1 mM Coenzyme A, 0.01 mM HEPES, pH 7.8) were prepared. Media was removed from the plates and lysis buffer and luciferin assay buffer mixed in a 1:1 ratio and then 30 μl of the mixture was added to each well using a Multidrop dispenser. Plates were read on the Northstar (Applied Biosystems, Foster City, Calif.) and data was analyzed using ActivityBase (ID Business Solutions, Ltd., Guildford, Surrey, UK). If required, luciferase values may be normalized for transfection efficiency by measuring β-galactosidase activity based on expression from the pCMX-Gal expression plasmid as described previously (Willy et al., 1995, Gene & Development, 9:1033-1045).

Kinetic solubility assay = details: pH 7.4, aqueous buffer, kinetic from dmso stock
Experimental: The kinetic solubility of test compounds in buffer was evaluated using a 96 well filtration plate format. A 500 μM assay solution in PBS, pH7.4 (or other assay buffer, as needed) was generated form a DMSO stock solution (up to 10 mM). Samples were transferred to a 96 Millipore MultiScreen HTS 96-well Filter plate (Cat# MSSLBPC10) mixed by shaking for 1.5 hours and processed by filtration prior to quantitation by HPLC-UV. Amiodarone and testosterone were used as reference controls.

| SMILES | IC50 [1] [µM] | solubility kinetic at 1.5 h (Kinetic solubility assay) [µM] |
| --- | --- | --- |
| Cc1cc(C(=O)NCc2ccc(Oc3ccccc3)cc2)c(C)n1-c1ccccc1C(F)(F)F [2,5-dimethyl-1-(2-trifluoromethyl-phenyl)-1H-pyrrole-3-carboxylic acid 4-phenoxy-benzylamide] | 1 to 5 | – |
| Cc1cc(C(=O)Nc2cc(C(F)(F)F)ccc2F)c(C)n1-c1ccccc1C(F)(F)F [2,5-dimethyl-1-(2-trifluoromethyl-phenyl)-1H-pyrrole-3-carboxylic acid (2-fluoro-5-trifluoromethyl-phenyl)-amide] | 1 to 5 | – |
| Cc1cc(C(=O)NCCc2cccs2)c(C)n1-c1ccccc1C(F)(F)F [2,5-dimethyl-1-(2-trifluoromethyl-phenyl)-1H-pyrrole-3-carboxylic acid (2-thiophen-2-yl-ethyl)-amide] | 0.5 to 1 | – |
| Cc1cc(C(=O)NCCc2ccccc2Cl)c(C)n1-c1ccccc1C(F)(F)F [2,5-dimethyl-1-(2-trifluoromethyl-phenyl)-1H-pyrrole-3-carboxylic acid [2-(2-chloro-phenyl)-ethyl]-amide] | 0.5 to 1 | – |
| Cc1cc(C(=O)NCCc2cccc(Cl)c2)c(C)n1-c1ccccc1C(F)(F)F [2,5-dimethyl-1-(2-trifluoromethyl-phenyl)-1H-pyrrole-3-carboxylic acid [2-(3-chloro-phenyl)-ethyl]-amide] | 1 to 5 | – |
| Cc1cc(C(=O)NCCc2ccccc2)c(C)n1-c1ccccc1C(F)(F)F [2,5-dimethyl-1-(2-trifluoromethyl-phenyl)-1H-pyrrole-3-carboxylic acid phenethyl-amide] | < 0.5 | – |
| C[C@]12CC[C@H]3[C@@H](CCC4=CC(=O)CC[C@@]43C)[C@@H]1CC[C@@H]2O [testosterone] | – | ~330 (≈ 95.2 µg/mL) |
